Where a SMILES comes first, the peptide text is derived from it. [ ]: non-standard residue; d: D form. The star is where a group is joined. Cbz = O=C(OCc1ccccc1)*
Columns and labels:
[1] = tested on: mouse Swiss 3T3 fibroblast cells; type: cell-based; conditions: 3 h
Method: (b) An in vitro assay which assesses the ability of a test compound to inhibit the Neuromedin C stimulated mitogenesis of mouse Swiss 3T3 fibroblast cells as determined by the uptake of [^3 H]-thymidine. The test is similar to those described by N. Corps., L. Rees and K. Brown, Biochem. Journal, 1985, 231, 781 and I. Zachary and E. Rozengurt, Proc. Nat. Acad. Sci. U.S.A., 1985, 82, 7616, except that GRP (18-27) (0.2 or 0.4 nM) was used to stimulate growth and the test compounds were dissolved in an assay medium containing 0.1% bovine serum albumin and 0.4% dimethylsulphoxide and […]

[2] = biological target: T1, bombesin receptor of mouse Swiss 3T3 fibroblast cells (Mus musculus, UniProt P21729); experiment: Test (a): in vitro binding assay, displacement of [I125]GRP; conditions: ambient temperature, 1 hour
T1 construct: the bombesin receptor of mouse Swiss 3T3 fibroblast cells; endogenous in cells; host or cells: mouse Swiss 3T3 fibroblast cells
Method: (a) An in vitro binding assay which assesses the ability of a test compound to displace radiolabelled gastrin releasing peptide ([I^125 ]GRP) from the bombesin receptor of mouse Swiss 3T3 fibroblast cells. The test is similar to that described by I. Zachary and E. Rozengurt, Proc. Nat. Acad. Sci. U.S.A., 1985, 82, 7616, except that the cells are incubated at ambient temperature for 1 hour;

[3] = tested on: bombesin-induced stimulation of the secretion of the enzyme amylase; conditions: rat, in vivo
Method: (c) An in vivo test involving the measurement of the antagonism of the bombesin-induced stimulation of the secretion of the enzyme amylase into the pancreatic duct of the rat by a test compound administered orally, sub-cutaneously or intravenously. Bombesin and the test compound can be administered concomitantly or the test compound can be predosed at any convenient interval, for example 30, 60, 90, 120, 150 or 180 minutes, before bombesin is dosed. Amylase was measured by analysis of the conversion of starch into maltose, on incubation of the starch/amylase mixture at 30° C. for 15 minutes, using a spectrophotometric assay as originally described by P. Bernfield in `Methods in Enzymology` Vol. I, p17 (Editors Colowick and Kaplan, Academic Press, New York, 1955). Bombesin (5 micrograms/kg, intravenously) causes a large, but submaximal, increase of amylase secretion within 30 minutes.

[4] = tested on: bombesin-induced hypothermia; conditions: rat; cited from earlier work
[5] = tested on: guinea pig pancreatic acini; conditions: cited from earlier work

T1 sequence (P21729 whole entry): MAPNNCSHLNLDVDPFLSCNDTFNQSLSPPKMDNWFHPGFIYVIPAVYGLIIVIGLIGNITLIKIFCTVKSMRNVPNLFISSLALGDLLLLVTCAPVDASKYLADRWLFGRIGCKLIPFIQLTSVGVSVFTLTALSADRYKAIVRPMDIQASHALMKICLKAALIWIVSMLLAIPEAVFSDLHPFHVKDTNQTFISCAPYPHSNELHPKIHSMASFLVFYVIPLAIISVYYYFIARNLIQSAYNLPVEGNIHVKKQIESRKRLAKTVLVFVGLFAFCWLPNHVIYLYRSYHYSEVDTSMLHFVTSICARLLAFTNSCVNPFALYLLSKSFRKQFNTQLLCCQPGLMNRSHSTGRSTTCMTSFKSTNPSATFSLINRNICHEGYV

IC50 in test (c) [3] | Molecule | IC50 [1] | bombesin-stimulated secretion of amylase [5] | also measured
< 2 mg/kg | CNC(=O)[C@H](CC(C)C)NC(=O)[C@H](Cc1c[nH]cn1)NC(=O)[C@@H](C)NC(=O)[C@@H](NC(=O)[C@H](C)NC(=O)[C@H](Cc1c[nH]c2ccccc12)NC(=O)[C@H](Cc1c[nH]cn1)NC(C)=O)C(C)C [Ac-His-Trp-Ala-Val-D-Ala-His-Leu-NHMe] (Ac-HWAV[dA]HL-NHMe) | 28 nM | – | IC50 [2]: 19.5 nM
0.1 mg/kg | COC(=O)[C@H](CC(C)C)NC(=O)[C@H](CCCCNC(=O)OCc1ccccc1)NC(=O)[C@@H](C)NC(=O)[C@@H](NC(=O)[C@H](C)NC(=O)[C@H](Cc1c[nH]c2ccccc12)NC(=O)[C@H](Cc1c[nH]cn1)NC(C)=O)C(C)C [Ac-His-Trp-Ala-Val-D-Ala-Lys(Z)-Leu-OMe] (Ac-HWAV[dA]K(Cbz)L-OMe) | 0.1 nM | – | –
– | [D-Glp^7, D-Ala^11, Ala^14 ]bombesin (7-14) | – | – | antagonism of bombesin-induced hypothermia [4]: partial antagonist
– | [D-Phe^12 ]bombesin | – | inhibited | –
– | [D-Phe^12, Leu^14 ]bombesin | – | inhibited | –
– | [Tyr^4, D-Phe^12 ]bombesin | – | inhibited | –
